Results published in patent publication US9505729B2, “Isoxazole analogs as mediators of transcriptional induction of E-cadherin” (Vanderbilt University, priority 2014, dated 2016).

Tested on: E-cadherin expression in SW620 cells
Assay: In-cell Western (ICW) cell-based functional assay of E-cadherin expression in SW620 cells
Settings: Homo sapiens, SW-620; for fold induction at 10 µM: change in expression level of E-cadherin in response to 10 μM compound, SW620 cells, 24 hours; for EC50: inducement of E-cadherin expression in SW620 cells
Description: SW620 and H520 cells (5×10^4/100 μL) were seeded in a 96-well plate prior to treatment. Cells were treated with 10 μM concentration of synthesized compound in quadruplicate for 24 hours in RPMI 1640 supplemented medium and 100 μg/mL penicillin-streptomycin. The cells were then fixed with 100% methanol for 20 minutes at 4° C. The wells were then washed 2 times with PBS, permeabilized in 2% bovine serum albumin (BSA) and 0.2% TritonX-100 in PBS for 30 minutes at room temperature with gentle agitation, and blocked in LI-COR blocking buffer for 30 minutes at room temperature with gentle agitation. The cells were then incubated with the following primary antibodies: anti-E-Cadherin (1:500) and anti-α-Tubulin (1:1000) diluted in blocking buffer (1:1 dilution in PBS) for 2 hours at room temperature with gentle agitation. The cells were washed 4 times in PBS-T for 5 minutes each, and then incubated with the following secondary antibodies conjugated to a fluorescent entity: IRDye 800-conjugated goat anti-rabbit IgG (1:1000) and IRDye-700-conjugated goat anti-mouse IgG (1:2000) in blocking buffer (1:1 dilution in PBS) with gentle agitation for 1 h at room temperature. The cells were washed 4 times in PBS-T for 5 minutes each followed by a single wash with PBS. All liquid was removed from the wells and the plates were visualized and analyzed on the Odyssey IR imaging system (LI-COR Biosciences).
The assay was further optimized in the following manner. The cells were washed 2 times with PBS, fixed in 100% methanol at room temperature for 15 minutes, and again washed 2 times with PBS. The cells were then incubated with the following primary antibodies: anti-E-Cadherin (1:200) and anti-α-Tubulin (1:2000) diluted in ice cold 2% bovine serum albumin (BSA) and 0.2% TritonX-100 in PBS for 1 hour at room temperature with gentle agitation. The cells were washed 2 times in PBS and then incubated with the following secondary antibodies conjugated to a fluorescent entity: Licor 800-conjugated goat anti-rabbit IgG (1:2000) and IRDye-700-conjugated goat anti-mouse IgG (1:2000) in ice cold 2% BSA and 0.2% TritonX-100 in PBS with gentle agitation for 45 minutes at room temperature. The wells were washed 2 times in PBS, dried, and analyzed as previously mentioned.
N-(3-(Arylamino)alkyl)-5-arylisoxazole-3-carboxamide analogs were synthesized as described above. Changes in expression level of E-cadherin in response to 10 μM compound in SW620 cells was determined in the cell-based functional assay as described above, and the data are shown in Table II. The compound number corresponds to the compound numbers used in Table I.
EC50 of inducement of E-cadherin expression in SW620 cells was determined in the cell-based functional assay as described above, and the data are shown in Table III. The compound number corresponds to the compound numbers used in Table I.

EC50 [µM] | Compound | fold induction at 10 µM
– | N#Cc1ccc(NCCCNC(=O)c2cc(-c3ccccc3)on2)nc1 [Compound 1, N-(3-((5-cyanopyridin-2-yl)amino)propyl)-5-phenylisoxazole-3-carboxamide] | 0.63
– | O=C(NCCCNCc1c[nH]c2ccccc12)c1cc(-c2ccccc2)on1 [Compound 2, N-(3-(((1H-indol-3-yl)methyl)amino)propyl)-5-phenylisoxazole-3-carboxamide] | 0.68
– | O=C(NCCCNCc1cccnc1)c1cc(-c2ccccc2)on1 [Compound 3, 5-phenyl-N-(3-((pyridin-3-ylmethyl)amino)propyl)isoxazole-3-carboxamide] | 0.7
– | Cc1ncc(CNCCCNC(=O)c2cc(-c3ccccc3)on2)o1 [Compound 4, N-(3-(((2-methyloxazol-5-yl)methyl)amino)propyl)-5-phenylisoxazole-3-carboxamide] | 0.71
– | O=C(NCCCNCc1ccccn1)c1cc(-c2ccccc2)on1 [Compound 5, 5-phenyl-N-(3-((pyridin-2-ylmethyl)amino)propyl)isoxazole-3-carboxamide] | 0.71
– | O=C(NCCCN(Cc1ccccn1)Cc1ccccn1)c1cc(-c2ccccc2)on1 [Compound 6, N-(3-(bis(pyridin-2-ylmethyl)amino)propyl)-5-phenylisoxazole-3-carboxamide] | 0.82
– | Cc1ncc(CN(CCCNC(=O)c2cc(-c3ccccc3)on2)Cc2cnc(C)o2)o1 [Compound 7, N-(3-(bis((2-methyloxazol-5-yl)methyl)amino)propyl)-5-phenylisoxazole-3-carboxamide] | 0.83
– | O=C(NCCCNCc1ccc(O)c(O)c1)c1cc(-c2ccccc2)on1 [Compound 8, N-(3-((3,4-dihydroxybenzyl)amino)propyl)-5-phenylisoxazole-3-carboxamide] | 0.84
– | COc1cncc(CNCCCNC(=O)c2cc(-c3ccccc3)on2)c1 [Compound 9, N-(3-(((5-methoxypyridin-3-yl)methyl)amino)propyl)-5-phenylisoxazole-3-carboxamide] | 0.89
– | O=C(NCCCNCc1c[nH]c2ncccc12)c1cc(-c2ccccc2)on1 [Compound 10, N-(3-(((1H-pyrrolo[2,3-b]pyridin-3-yl)methyl)amino)propyl)-5-phenylisoxazole-3-carboxamide] | 0.91
– | Cc1cc(CNCCCNC(=O)c2cc(-c3ccccc3)on2)on1 [Compound 11, N-(3-(((3-methylisoxazol-5-yl)methyl)amino)propyl)-5-phenylisoxazole-3-carboxamide] | 0.9
– | O=C(NCCCNCc1ccc(O)cc1O)c1cc(-c2ccccc2)on1 [Compound 12, N-(3-((2,4-dihydroxybenzyl)amino)propyl)-5-phenylisoxazole-3-carboxamide] | 0.91
– | CC(=O)n1cc(CNCCCNC(=O)c2cc(-c3ccccc3)on2)c2ccccc21 [Compound 13, N-(3-(((1-acetyl-1H-indol-3-yl)methyl)amino)propyl)-5-phenylisoxazole-3-carboxamide] | 0.91
– | O=C(NCCCNCc1cnoc1)c1cc(-c2ccccc2)on1 [Compound 14, N-(3-((isoxazol-4-ylmethyl)amino)propyl)-5-phenylisoxazole-3-carboxamide] | 0.94
– | O=C(NCCCN(Cc1cnoc1)Cc1cnoc1)c1cc(-c2ccccc2)on1 [Compound 15, N-(3-(bis(isoxazol-4-ylmethyl)amino)propyl)-5-phenylisoxazole-3-carboxamide] | 0.95
– | O=C(NCCCNCc1ccccc1O)c1cc(-c2ccccc2)on1 [Compound 16, N-(3-((2-hydroxybenzyl)amino)propyl)-5-phenylisoxazole-3-carboxamide] | 0.98
– | [N-]=[N+]=Nc1nccc(NCCCNC(=O)c2cc(-c3ccccc3)on2)n1 [Compound 17, N-(3-((2-azidopyrimidin-4-yl)amino)propyl)-5-phenylisoxazole-3-carboxamide] | 1.07

EC50 [µM] | Compound | fold induction at 10 µM
– | O=C(NCCCNCc1ccccc1O)c1cc(-c2ccccc2)[nH]n1 [Compound 21, N-(3-((2-hydroxybenzyl)amino)propyl)-5-phenyl-1H-pyrazole-3-carboxamide] | 1.14
– | O=C(NCCCNCc1cccnc1)c1cc(-c2ccccc2)[nH]n1 [Compound 22, 5-phenyl-N-(3-((pyridin-3-ylmethyl)amino)propyl)-1H-pyrazole-3-carboxamide] | 1.16
– | O=C(NCCCNCc1ccccn1)c1cc(-c2ccccc2)[nH]n1 [Compound 23, 5-phenyl-N-(3-((pyridin-2-ylmethyl)amino)propyl)-1H-pyrazole-3-carboxamide] | 1.44
– | Cc1ncc(CNCCCNC(=O)c2cc(-c3ccccc3)[nH]n2)o1 [Compound 24, N-(3-(((2-methyloxazol-5-yl)methyl)amino)propyl)-5-phenyl-1H-pyrazole-3-carboxamide] | 1.5
– | Cc1ncc(CN(CCCNC(=O)c2cc(-c3ccccc3)[nH]n2)Cc2cnc(C)o2)o1 [Compound 25, N-(3-(bis((2-methyloxazol-5-yl)methyl)amino)propyl)-5-phenyl-1H-pyrazole-3-carboxamide] | 1.54
– | O=C(NCCCNCc1c[nH]c2ccccc12)c1cc(-c2ccccc2)[nH]n1 [Compound 26, N-(3-(((1H-indol-3-yl)methyl)amino)propyl)-5-phenyl-1H-pyrazole-3-carboxamide] | 1.64
– | O=C(NCCCN(Cc1ccc(O)c(O)c1)Cc1ccc(O)c(O)c1)c1cc(-c2ccccc2)[nH]n1 [Compound 27, N-(3-(bis(3,4-dihydroxybenzyl)amino)propyl)-5-phenyl-1H-pyrazole-3-carboxamide] | 1.67
– | COc1cncc(CNCCCNC(=O)c2cc(-c3ccccc3)[nH]n2)c1 [Compound 28, N-(3-(((5-methoxypyridin-3-yl)methyl)amino)propyl)-5-phenyl-1H-pyrazole-3-carboxamide] | 1.8
– | COc1cncc(CN(CCCNC(=O)c2cc(-c3ccccc3)[nH]n2)Cc2cncc(OC)c2)c1 [Compound 29, N-(3-(bis((5-methoxypyridin-3-yl)methyl)amino)propyl)-5-phenyl-1H-pyrazole-3-carboxamide] | 2.09
– | O=C(NCCCNCc1c[nH]c2ncccc12)c1cc(-c2ccccc2)[nH]n1 [Compound 30, N-(3-(((1H-pyrrolo[2,3-b]pyridin-3-yl)methyl)amino)propyl)-5-phenyl-1H-pyrazole-3-carboxamide] | 2.33
– | Cc1cc(CNCCCNC(=O)c2cc(-c3ccccc3)[nH]n2)on1 [Compound 31, N-(3-(((3-methylisoxazol-5-yl)methyl)amino)propyl)-5-phenyl-1H-pyrazole-3-carboxamide] | 2.52
– | Cc1cc(CN(CCCNC(=O)c2cc(-c3ccccc3)[nH]n2)Cc2cc(C)no2)on1 [Compound 32, N-(3-(bis((3-methylisoxazol-5-yl)methyl)amino)propyl)-5-phenyl-1H-pyrazole-3-carboxamide] | 3.06
– | O=C(NCCCNCc1ccc(O)cc1O)c1cc(-c2ccccc2)[nH]n1 [Compound 33, N-(3-((2,4-dihydroxybenzyl)amino)propyl)-5-phenyl-1H-pyrazole-3-carboxamide] | 3.4
– | CC(=O)n1cc(CNCCCNC(=O)c2cc(-c3ccccc3)[nH]n2)c2ccccc21 [Compound 34, N-(3-(((1-acetyl-1H-indol-3-yl)methyl)amino)propyl)-5-phenyl-1H-pyrazole-3-carboxamide] | 3.58
– | O=C(NCCCNCc1cnoc1)c1cc(-c2ccccc2)[nH]n1 [Compound 35, N-(3-((isoxazol-4-ylmethyl)amino)propyl)-5-phenyl-1H-pyrazole-3-carboxamide] | 3.59
12 | O=C(NCCCN(Cc1cnoc1)Cc1cnoc1)c1cc(-c2ccccc2)[nH]n1 [Compound 36, N-(3-(bis(isoxazol-4-ylmethyl)amino)propyl)-5-phenyl-1H-pyrazole-3-carboxamide] | 5.77
15 | [N-]=[N+]=Nc1nccc(NCCCNC(=O)c2cc(-c3ccccc3)[nH]n2)n1 [Compound 37, N-(3-((2-azidopyrimidin-4-yl)amino)propyl)-5-phenyl-1H-pyrazole-3-carboxamide] | 6.09
